From PubChem BioAssay AID1963875 (Molecular Pharmacology Branch, DTP, NCI, 2024)
pIC50: −log10 of the molar value.

Tested on: KRAS-mutant PDC complex spheroid viability
Assay: Anticancer human tumor 186277-243-T-J2-PDC patient-derived colon adenocarcinoma cell line growth inhibition [KRAS2]
Conditions: for pIC50: curve of first compound; for viability, T/C: stronger effect = lower value
In short: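 Combination screen of spheroid viability in tumor-cell co-cultures with endothelial (HUVEC) and mesenchymal stem cell stroma. Each agent was tested in half-log dilutions, topping at clinical Cmax or at 10 microM without a known Cmax.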

[1] = second compound 0.1 µM, first compound 0.000316 µM
[2] = second compound 0.1 µM, first compound 0.001 µM
[3] = second compound 0.1 µM, first compound 0.00316 µM
[4] = second compound 0.1 µM, first compound 0.01 µM
[5] = second compound 0.1 µM, first compound 0.0316 µM
[6] = second compound 0.316 µM, first compound 0.000316 µM
[7] = second compound 0.316 µM, first compound 0.001 µM
[8] = second compound 0.316 µM, first compound 0.00316 µM
[9] = second compound 0.316 µM, first compound 0.01 µM
[10] = second compound 0.316 µM, first compound 0.0316 µM
[11] = second compound 1 µM, first compound 0.000316 µM
[12] = second compound 1 µM, first compound 0.001 µM
[13] = second compound 1 µM, first compound 0.00316 µM
[14] = second compound 1 µM, first compound 0.01 µM
[15] = second compound 1 µM, first compound 0.0316 µM
[16] = second compound 3.16 µM, first compound 0.000316 µM
[17] = second compound 3.16 µM, first compound 0.001 µM
[18] = second compound 3.16 µM, first compound 0.00316 µM
[19] = second compound 3.16 µM, first compound 0.01 µM
[20] = second compound 3.16 µM, first compound 0.0316 µM
[21] = second compound 10 µM, first compound 0.000316 µM
[22] = second compound 10 µM, first compound 0.001 µM
[23] = second compound 10 µM, first compound 0.00316 µM
[24] = second compound 10 µM, first compound 0.01 µM
[25] = second compound 10 µM, first compound 0.0316 µM
[26] = second compound 0.1 µM, first compound 0.1 µM
[27] = second compound 0.316 µM, first compound 0.1 µM
[28] = second compound 1 µM, first compound 0.1 µM
[29] = second compound 3.16 µM, first compound 0.1 µM
[30] = second compound 10 µM, first compound 0.1 µM
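For viability, T/C in this document: viability read after seven days of compound exposure; 100% = DMSO vehicle-treated spheroids so lower means less viable.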

Question: `CC(=O)Nc1cccc(-n2c(=O)n(C3CC3)c(=O)c3c(Nc4ccc(I)cc4F)n(C)c(=O)c(C)c32)c1` + COc1cc2nc(C)nc(NC(C)c3cc(N)cc(C(F)(F)F)c3)c2cc1OC1CCOC1 was tested. Which pIC50 (second compound 0.1 µM) did it give?
Answer: Its pIC50 is 9.34.

Question: And the pIC50 (second compound 0.316 µM)?
Answer: The pIC50 was 9.46.

Question: And the pIC50 (second compound 1 µM)?
Answer: Its pIC50 is 9.53.

Question: What about the pIC50 (second compound 3.16 µM) of the same compound?
Answer: Its pIC50 is 9.65.

Question: What about the pIC50 (second compound 10 µM) of the same compound?
Answer: Its pIC50 is greater than 10.00.

Question: What about the viability, T/C (second compound 0.1 µM, first compound 0.0001 µM) of the same compound?
Answer: Its viability, T/C is 116%.

Question: And the viability, T/C [1]?
Answer: Its viability, T/C is 68.2%.

Question: What about the viability, T/C [2] of the same compound?
Answer: Its viability, T/C is 11.4%.

Question: What about the viability, T/C [3] of the same compound?
Answer: Its viability, T/C is 4.55%.

Question: What about the viability, T/C [4] of the same compound?
Answer: The viability, T/C was 1.94%.

Question: And the viability, T/C [5]?
Answer: The viability, T/C was 1.13%.

Question: And the viability, T/C (second compound 0.316 µM, first compound 0.0001 µM)?
Answer: The viability, T/C was 108%.

Question: And the viability, T/C [6]?
Answer: Its viability, T/C is 53%.

Question: What about the viability, T/C [7] of the same compound?
Answer: Its viability, T/C is 10.2%.

Question: What about the viability, T/C [8] of the same compound?
Answer: Its viability, T/C is 3.15%.

Question: And the viability, T/C [9]?
Answer: The viability, T/C was 2.07%.

Question: What about the viability, T/C [10] of the same compound?
Answer: Its viability, T/C is 1.01%.

Question: And the viability, T/C (second compound 1 µM, first compound 0.0001 µM)?
Answer: Its viability, T/C is 118%.

Question: And the viability, T/C [11]?
Answer: The viability, T/C was 46.3%.

Question: And the viability, T/C [12]?
Answer: The viability, T/C was 8.75%.

Question: What about the viability, T/C [13] of the same compound?
Answer: Its viability, T/C is 4.43%.

Question: And the viability, T/C [14]?
Answer: The viability, T/C was 1.55%.

Question: What about the viability, T/C [15] of the same compound?
Answer: Its viability, T/C is 1.02%.

Question: And the viability, T/C (second compound 3.16 µM, first compound 0.0001 µM)?
Answer: The viability, T/C was 108%.

Question: And the viability, T/C [16]?
Answer: The viability, T/C was 26%.

Question: What about the viability, T/C [17] of the same compound?
Answer: Its viability, T/C is 6.24%.

Question: What about the viability, T/C [18] of the same compound?
Answer: The viability, T/C was 2.83%.

Question: What about the viability, T/C [19] of the same compound?
Answer: Its viability, T/C is 1.04%.

Question: What about the viability, T/C [20] of the same compound?
Answer: The viability, T/C was 0.82%.

Question: And the viability, T/C (second compound 10 µM, first compound 0.0001 µM)?
Answer: Its viability, T/C is 13.9%.

Question: And the viability, T/C [21]?
Answer: Its viability, T/C is 3.04%.

Question: What about the viability, T/C [22] of the same compound?
Answer: The viability, T/C was 1.39%.

Question: What about the viability, T/C [23] of the same compound?
Answer: Its viability, T/C is 0.49%.

Question: What about the viability, T/C [24] of the same compound?
Answer: The viability, T/C was 0.21%.

Question: What about the viability, T/C [25] of the same compound?
Answer: Its viability, T/C is 0.23%.

Question: Which results are given for `CC(C)n1nc(-c2ccc3oc(N)nc3c2)c2c(N)ncnc21` + COc1cc2nc(C)nc(NC(C)c3cc(N)cc(C(F)(F)F)c3)c2cc1OC1CCOC1?
Answer: pIC50 (second compound 0.1 µM): 8.12; pIC50 (second compound 0.316 µM): 8.20; pIC50 (second compound 1 µM): 7.81; pIC50 (second compound 3.16 µM): 7.76; pIC50 (second compound 10 µM): 8.24; viability, T/C [1]: 98.3%; viability, T/C [2]: 96.3%; viability, T/C [3]: 64.8%; viability, T/C [4]: 47%; viability, T/C [5]: 25.3%; viability, T/C [26]: 17.3%; viability, T/C [6]: 111%; viability, T/C [7]: 93.6%; viability, T/C [8]: 74.1%; viability, T/C [9]: 34.8%; viability, T/C [10]: 19.8%; viability, T/C [27]: 17.2%; viability, T/C [11]: 108%; viability, T/C [12]: 103%; viability, T/C [13]: 91.8%; viability, T/C [14]: 62.9%; viability, T/C [15]: 28.5%; viability, T/C [28]: 13.7%; viability, T/C [16]: 109%; viability, T/C [17]: 103%; viability, T/C [18]: 99.8%; viability, T/C [19]: 69%; viability, T/C [20]: 29%; viability, T/C [29]: 16%; viability, T/C [21]: 64.5%; viability, T/C [22]: 64.3%; viability, T/C [23]: 58.8%; viability, T/C [24]: 41.9%; viability, T/C [25]: 21.1%; viability, T/C [30]: 8.37%

Question: `CC1(C)CCC(CN2CCN(c3ccc(C(=O)NS(=O)(=O)c4ccc(NCC5CCOCC5)c([N+](=O)[O-])c4)c(Oc4cnc5[nH]ccc5c4)c3)CC2)=C(c2ccc(Cl)cc2)C1` + COc1cc2nc(C)nc(NC(C)c3cc(N)cc(C(F)(F)F)c3)c2cc1OC1CCOC1 was tested. Which pIC50 (second compound 0.1 µM) did it give?
Answer: The pIC50 was 5.66.

Question: What about the pIC50 (second compound 0.316 µM) of the same compound?
Answer: Its pIC50 is 5.68.

Question: And the pIC50 (second compound 1 µM)?
Answer: The pIC50 was 5.70.

Question: What about the pIC50 (second compound 3.16 µM) of the same compound?
Answer: Its pIC50 is 5.68.

Question: What about the pIC50 (second compound 10 µM) of the same compound?
Answer: The pIC50 was 6.33.

Question: And the viability, T/C [5]?
Answer: Its viability, T/C is 102%.

Question: And the viability, T/C [26]?
Answer: Its viability, T/C is 99.2%.

Question: And the viability, T/C (second compound 0.1 µM, first compound 0.316 µM)?
Answer: The viability, T/C was 108%.

Question: What about the viability, T/C (second compound 0.1 µM, first compound 1 µM) of the same compound?
Answer: Its viability, T/C is 99.7%.

Question: What about the viability, T/C (second compound 0.1 µM, first compound 3.16 µM) of the same compound?
Answer: Its viability, T/C is 26.4%.

Question: And the viability, T/C (second compound 0.1 µM, first compound 10 µM)?
Answer: Its viability, T/C is 0.68%.

Question: What about the viability, T/C [10] of the same compound?
Answer: Its viability, T/C is 92.5%.

Question: What about the viability, T/C [27] of the same compound?
Answer: Its viability, T/C is 107%.

Question: What about the viability, T/C (second compound 0.316 µM, first compound 0.316 µM) of the same compound?
Answer: The viability, T/C was 104%.

Question: And the viability, T/C (second compound 0.316 µM, first compound 1 µM)?
Answer: Its viability, T/C is 103%.

Question: And the viability, T/C (second compound 0.316 µM, first compound 3.16 µM)?
Answer: The viability, T/C was 19.9%.

Question: What about the viability, T/C (second compound 0.316 µM, first compound 10 µM) of the same compound?
Answer: The viability, T/C was 0.6%.

Question: And the viability, T/C [15]?
Answer: The viability, T/C was 104%.

Question: What about the viability, T/C [28] of the same compound?
Answer: The viability, T/C was 108%.

Question: What about the viability, T/C (second compound 1 µM, first compound 0.316 µM) of the same compound?
Answer: Its viability, T/C is 110%.

Question: What about the viability, T/C (second compound 1 µM, first compound 1 µM) of the same compound?
Answer: The viability, T/C was 100%.

Question: What about the viability, T/C (second compound 1 µM, first compound 3.16 µM) of the same compound?
Answer: The viability, T/C was 15.7%.

Question: And the viability, T/C (second compound 1 µM, first compound 10 µM)?
Answer: Its viability, T/C is 1.19%.

Question: And the viability, T/C [20]?
Answer: Its viability, T/C is 106%.

Question: And the viability, T/C [29]?
Answer: The viability, T/C was 103%.

Question: What about the viability, T/C (second compound 3.16 µM, first compound 0.316 µM) of the same compound?
Answer: Its viability, T/C is 111%.

Question: What about the viability, T/C (second compound 3.16 µM, first compound 1 µM) of the same compound?
Answer: The viability, T/C was 115%.

Question: What about the viability, T/C (second compound 3.16 µM, first compound 3.16 µM) of the same compound?
Answer: Its viability, T/C is 15.6%.

Question: What about the viability, T/C (second compound 3.16 µM, first compound 10 µM) of the same compound?
Answer: The viability, T/C was 1.05%.

Question: What about the viability, T/C [25] of the same compound?
Answer: The viability, T/C was 77.3%.

Question: What about the viability, T/C [30] of the same compound?
Answer: The viability, T/C was 91.8%.

Question: What about the viability, T/C (second compound 10 µM, first compound 0.316 µM) of the same compound?
Answer: Its viability, T/C is 53.2%.

Question: And the viability, T/C (second compound 10 µM, first compound 1 µM)?
Answer: The viability, T/C was 33.6%.

Question: And the viability, T/C (second compound 10 µM, first compound 3.16 µM)?
Answer: The viability, T/C was 5.28%.

Question: And the viability, T/C (second compound 10 µM, first compound 10 µM)?
Answer: The viability, T/C was 0.64%.
